ChEMBL document CHEMBL1201862, “PubChem BioAssay data set” (2004)
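Cells were grown in 96-well plates and exposed to each compound for 48 hours at five concentrations; endpoints were interpolated linearly between bracketing concentrations, or set to the highest concentration if not reached. Abbreviation: GI50, concentration required for 50% inhibition of growth.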 The source made the active and inactive calls. No stated cut-off is given here; in the data, active = GI50 up to about 1.1 µM and inactive = higher.

How the values were obtained:
Experiment in all cases: inhibition of tumour cell growth, NCI panel, 48 h
CAKI-1 = test system: CAKI-1
IGROV-1 = test system: IGROV-1
HOP-62 = test system: HOP-62
HT-29 = test system: HT-29
A498 = test system: A498
UACC-62 = test system: UACC-62
HOP-92 = test system: HOP-92
ACHN = test system: ACHN
NCI-H23 = test system: NCI-H23
SF-295 = test system: SF-295
BT-549 = test system: BT-549
COLO 205 = test system: COLO 205
OVCAR-4 = test system: OVCAR-4
SNB-75 = test system: SNB-75
OVCAR-8 = test system: OVCAR-8
MOLT-4 = test system: MOLT-4
HCT-15 = test system: HCT-15
T47D = test system: T47D
SF-539 = test system: SF-539
SK-MEL-5 = test system: SK-MEL-5
Hs-578T = test system: Hs-578T
K562 = test system: K562
LOX IMVI = test system: LOX IMVI
OVCAR-3 = test system: OVCAR-3
MDA-N = test system: MDA-N
NCI-H226 = test system: NCI-H226
TK-10 = test system: TK-10
Malme-3M = test system: Malme-3M
SR = test system: SR
OVCAR-5 = test system: OVCAR-5
SN12C = test system: SN12C
MCF7 = test system: MCF7
SK-MEL-2 = test system: SK-MEL-2
RXF 393 = test system: RXF 393
NCI-H460 = test system: NCI-H460
NCI/ADR-RES = test system: NCI/ADR-RES
KM12 = test system: KM12
MDA-MB-231 = test system: MDA-MB-231
MDA-MB-435 = test system: MDA-MB-435
SK-OV-3 = test system: SK-OV-3
SK-MEL-28 = test system: SK-MEL-28
HCT-116 = test system: HCT-116
NCI-H522 = test system: NCI-H522
SW-620 = test system: SW-620
U-251 = test system: U-251
M14 = test system: M14
SF-268 = test system: SF-268
EKVX = test system: EKVX
DU-145 = test system: DU-145
786-0 = test system: 786-0
A549 = test system: A549
UACC-257 = test system: UACC-257
RPMI-8226 = test system: RPMI-8226
PC-3 = test system: PC-3
SNB-19 = test system: SNB-19
UO-31 = test system: UO-31
HCC 2998 = test system: HCC 2998
CCRF-CEM = test system: CCRF-CEM
HL-60 = test system: HL-60

Structure (SMILES): CC(C)(S)C(N)C(=O)O (stereo not drawn) [DL-PENICILLAMINE]
- GI50 (CAKI-1): > 100 µM (inactive)
- GI50 (IGROV-1): > 100 µM (inactive)
- GI50 (HOP-62): > 100 µM (inactive)
- GI50 (HT-29): > 100 µM (inactive)
- GI50 (A498): > 100 µM (inactive)
- GI50 (UACC-62): > 100 µM (inactive)
- GI50 (HOP-92): > 100 µM (inactive)
- GI50 (ACHN): > 100 µM (inactive)
- GI50 (NCI-H23): > 100 µM (inactive)
- GI50 (SF-295): > 100 µM (inactive)
- GI50 (BT-549): > 100 µM (inactive)
- GI50 (COLO 205): > 100 µM (inactive)
- GI50 (OVCAR-4): > 100 µM (inactive)
- GI50 (SNB-75): > 100 µM (inactive)
- GI50 (OVCAR-8): > 100 µM (inactive)
- GI50 (MOLT-4): > 100 µM (inactive)
- GI50 (HCT-15): > 100 µM
- GI50 (T47D): > 100 µM (inactive)
- GI50 (SF-539): > 100 µM (inactive)
- GI50 (SK-MEL-5): > 100 µM (inactive)
- GI50 (Hs-578T): > 100 µM (inactive)
- GI50 (K562): > 100 µM (inactive)
- GI50 (LOX IMVI): > 100 µM (inactive)
- GI50 (OVCAR-3): > 100 µM (inactive)
- GI50 (MDA-N): > 100 µM (inactive)
- GI50 (NCI-H226): > 100 µM (inactive)
- GI50 (TK-10): > 100 µM (inactive)
- GI50 (Malme-3M): > 100 µM (inactive)
- GI50 (SR): > 100 µM (inactive)
- GI50 (OVCAR-5): > 100 µM (inactive)
- GI50 (SN12C): > 100 µM (inactive)
- GI50 (MCF7): > 100 µM (inactive)
- GI50 (SK-MEL-2): > 100 µM (inactive)
- GI50 (RXF 393): > 100 µM (inactive)
- GI50 (NCI-H460): > 100 µM (inactive)
- GI50 (NCI/ADR-RES): > 100 µM (inactive)
- GI50 (KM12): > 100 µM (inactive)
- GI50 (MDA-MB-231): > 100 µM (inactive)
- GI50 (MDA-MB-435): > 100 µM (inactive)
- GI50 (SK-OV-3): > 100 µM (inactive)
- GI50 (SK-MEL-28): > 100 µM (inactive)
- GI50 (HCT-116): > 100 µM (inactive)
- GI50 (NCI-H522): > 100 µM (inactive)
- GI50 (SW-620): > 100 µM (inactive)
- GI50 (U-251): > 100 µM (inactive)
- GI50 (M14): > 100 µM (inactive)
- GI50 (SF-268): > 100 µM (inactive)
- GI50 (EKVX): > 100 µM (inactive)
- GI50 (DU-145): > 100 µM (inactive)
- GI50 (786-0): > 100 µM (inactive)
- GI50 (A549): > 100 µM (inactive)
- GI50 (UACC-257): > 100 µM (inactive)
- GI50 (RPMI-8226): > 100 µM (inactive)
- GI50 (PC-3): > 100 µM (inactive)
- GI50 (SNB-19): > 100 µM (inactive)

Structure (SMILES): O=C1N=C(SC2OC(CO)C(O)C(O)C2O)S/C1=C\c1ccccc1 (stereo not drawn)
- GI50 (CAKI-1): > 100 µM (inactive)
- GI50 (IGROV-1): > 100 µM (inactive)
- GI50 (HOP-62): > 100 µM (inactive)
- GI50 (HT-29): > 100 µM (inactive)
- GI50 (A498): > 100 µM (inactive)
- GI50 (UACC-62): > 100 µM (inactive)
- GI50 (UO-31): > 100 µM (inactive)
- GI50 (ACHN): > 100 µM (inactive)
- GI50 (NCI-H23): > 100 µM (inactive)
- GI50 (SF-295): > 100 µM (inactive)
- GI50 (BT-549): > 100 µM (inactive)
- GI50 (SNB-75): > 100 µM (inactive)
- GI50 (OVCAR-8): > 100 µM (inactive)
- GI50 (MOLT-4): > 100 µM (inactive)
- GI50 (HCT-15): > 100 µM
- GI50 (T47D): > 100 µM (inactive)
- GI50 (SF-539): > 100 µM (inactive)
- GI50 (SK-MEL-5): > 100 µM (inactive)
- GI50 (Hs-578T): > 100 µM (inactive)
- GI50 (HCC 2998): > 100 µM (inactive)
- GI50 (K562): > 100 µM (inactive)
- GI50 (LOX IMVI): > 100 µM (inactive)
- GI50 (OVCAR-3): > 100 µM (inactive)
- GI50 (MDA-N): > 100 µM (inactive)
- GI50 (NCI-H226): > 100 µM (inactive)
- GI50 (TK-10): > 100 µM (inactive)
- GI50 (Malme-3M): > 100 µM (inactive)
- GI50 (SR): > 100 µM (inactive)
- GI50 (OVCAR-5): > 100 µM (inactive)
- GI50 (SN12C): > 100 µM (inactive)
- GI50 (MCF7): > 100 µM (inactive)
- GI50 (SK-MEL-2): > 100 µM (inactive)
- GI50 (RXF 393): 25.6 µM (inactive)
- GI50 (NCI-H460): > 100 µM (inactive)
- GI50 (NCI/ADR-RES): > 100 µM (inactive)
- GI50 (KM12): > 100 µM (inactive)
- GI50 (MDA-MB-231): > 100 µM (inactive)
- GI50 (MDA-MB-435): > 100 µM (inactive)
- GI50 (SK-OV-3): > 100 µM (inactive)
- GI50 (SK-MEL-28): > 100 µM (inactive)
- GI50 (NCI-H522): > 100 µM (inactive)
- GI50 (SW-620): > 100 µM (inactive)
- GI50 (CCRF-CEM): > 100 µM (inactive)
- GI50 (M14): > 100 µM (inactive)
- GI50 (SF-268): > 100 µM (inactive)
- GI50 (DU-145): > 100 µM (inactive)
- GI50 (786-0): > 100 µM (inactive)
- GI50 (A549): > 100 µM (inactive)
- GI50 (UACC-257): > 100 µM (inactive)
- GI50 (RPMI-8226): > 100 µM (inactive)
- GI50 (PC-3): > 100 µM (inactive)
- GI50 (HL-60): > 100 µM (inactive)
- GI50 (SNB-19): > 100 µM (inactive)
